Experimental findings from patent publication US20090247641A1, “HYDRAZONE AGENTS TO TREAT CUTANEOUS LESIONS” (priority 2005, published 2009) are described below.

Common to all, as to format: in vivo, human
Data set [1] concerns plantar warts. The experiment in a line: Treatment of plantar warts with A-007 0.25% gel (case report). From the text: Prior attempts at local surgical removal of the warts had failed. […] A-007 was applied in a 0.25% gel (2 g) nightly for three nights and covered with an absorbent pad to allow maximum penetration.
Data set [2] relates to cervical warts, CIN II, high risk HPV infection. Briefly: Treatment of cervical warts, CIN II and high risk HPV infection with 0.25% gel (case report). The protocol: A person had multiple abnormal pap smears with hair loss and skin changes secondary to hormonal imbalance. […] They were treated with 2 grams per day of 0.25% gel applied to the vagina for five days, for a total topical dose of 10 grams.

The subject of data set [3] is condyloma on cervix, low risk HPV in the 6/11 category. Briefly: Treatment of condyloma and HPV infection with 0.25% A-007 gel (case report). The protocol: They also had atypical squamous epithelium and CIN with warts. The cervix was inflamed with squamous exo-cervical dysplasia and a warty labial growth. They were treated with 2 grams per day of 0.25% A-007 gel applied to the vagina for five days, for a total topical dose of 10 grams. […] The HPV infection was also eliminated, and was absent after 24 months of observation.

Consider `O=[N+]([O-])c1ccc(NN=C(c2ccc(O)cc2)c2ccc(O)cc2)c([N+](=O)[O-])c1` [A-007, 4,4′-dihydroxybenzophenone-2,4-dinitrophenylhydrazone], for which, in data set [1] (0.25% gel (2 g) nightly for three nights, after 7 days), the “appearance of treated area” value is “new skin appeared which was soft with no area of induration”. Also, the “recurrence of warts and induration” value in data set [1] (after two months of follow-up observation) is “Neither the warts nor induration returned”. Further, the “time until treated area began peeling and new skin appeared” value in data set [1] (person, left foot, 0.25% gel (2 g) nightly for three nights under absorbent pad) is recorded as 7 days. In data set [2] (2 grams per day of 0.25% gel, vagina, five days), the “warty lesions on cervix” value is recorded as “disappeared”. For the same compound, the CIN outcome in data set [2] (CIN II, 2 grams per day of 0.25% gel, vagina, five days) is listed as “resolved”. Besides, the status at follow-up result in data set [2] (after 18 months of observation) is reported as “stable”. Also, the HPV infection status entry is “converted to low grade” in data set [2] (high risk HPV at baseline, 2 grams per day of 0.25% gel, vagina, five days) and “eliminated” in data set [3] (low risk HPV 6/11 at baseline, 2 grams per day of 0.25% A-007 gel, vagina, five days). Moreover, the toxicities entry in data set [2] (person, 2 grams per day of 0.25% gel applied to the vagina for five days, total 10 grams) was “No toxicities were observed”. The “external warty mass (labial growth)” value in data set [3] (2 grams per day of 0.25% A-007 gel, vagina, five days) is “fell off the labia”. In data set [3] (after 24 months of observation), the “HPV infection at follow-up” value was “absent”. Besides, the cervical condyloma entry in data set [3] (person, 2 grams per day of 0.25% A-007 gel applied to the vagina for five days, total 10 grams) was “disappeared”.
